System: human ventricular trabeculae
Assay: Action potential recording and pro-arrhythmic score analysis in human ventricular trabeculae (hVT);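 note: sharp microelectrode action potential recordings at 37°C in Tyrode-perfused trabeculae, 4 cumulative concentrations each applied 31 min, values averaged over last 30 APs, vehicle 0.1% DMSO as control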
[1] = 1Hz, 1-FOLD free ETPC (0.009µM)
[2] = 1Hz, 11-FOLD free ETPC (0.009µM)
[3] = 1Hz, 111-FOLD free ETPC (0.009µM)
[4] = 1Hz, 1111-FOLD free ETPC (0.009µM)
[5] = 2Hz, 1-FOLD free ETPC (0.009µM)
[6] = 2Hz, 11-FOLD free ETPC (0.009µM)
[7] = 2Hz, 111-FOLD free ETPC (0.009µM)
[8] = 2Hz, 1111-FOLD free ETPC (0.009µM)

SMILES: COc1c(N2C[C@@H]3CCCN[C@@H]3C2)c(F)cc2c(=O)c(C(=O)O)cn(C3CC3)c12 [MOXIFLOXACIN, Moxifloxacin]
- EAD detection (at 91-fold hETPC): only detected in one trabecula

SMILES: CC(C)(C)c1ccc(C(O)CCCN2CCC(C(O)(c3ccccc3)c3ccccc3)CC2)cc1 (stereo not shown) [TERFENADINE, Terfenadine]
- AMAX [1]: 113
- AMAX percentage change compared to vehicle control [1]: 1%
- APD30 [1]: 148
- APD30 percentage change compared to vehicle control [1]: 4%
- APD50 [1]: 199
- APD50 percentage change compared to vehicle control [1]: 3%
- APD90 [1]: 278
- APD90 percentage change compared to vehicle control [1]: 1%
- Alternans [1]: 0.70
- Alternans percentage change compared to vehicle control [1]: 53%
- Beat Escape [1]: 0
- Beat Escape percentage change compared to vehicle control [1]: 0%
- EADs [1]: 0
- EADs percentage change compared to vehicle control [1]: 0%
- ERP [1]: 0.45
- ERP percentage change compared to vehicle control [1]: -2%
- Max Dispersion [1]: 4.48
- Max Dispersion percentage change compared to vehicle control [1]: 60%
- RMP [1]: -89
- RMP percentage change compared to vehicle control [1]: 1%
- Refractoriness Escape [1]: 0
- Refractoriness Escape percentage change compared to vehicle control [1]: 0%
- STV [1]: 0.50
- STV percentage change compared to vehicle control [1]: 72%
- Triangulation [1]: 130
- Triangulation percentage change compared to vehicle control [1]: -2%
- AMAX [2]: 109
- AMAX percentage change compared to vehicle control [2]: -1%
- APD30 [2]: 152
- APD30 percentage change compared to vehicle control [2]: 6%
- APD50 [2]: 203
- APD50 percentage change compared to vehicle control [2]: 4%
- APD90 [2]: 286
- APD90 percentage change compared to vehicle control [2]: 3%
- Alternans [2]: 0.62
- Alternans percentage change compared to vehicle control [2]: 35%
- Beat Escape [2]: 0
- Beat Escape percentage change compared to vehicle control [2]: 0%
- EADs [2]: 0
- EADs percentage change compared to vehicle control [2]: 0%
- ERP [2]: 0.44
- ERP percentage change compared to vehicle control [2]: -3%
- Max Dispersion [2]: 2.80
- Max Dispersion percentage change compared to vehicle control [2]: 0%
- RMP [2]: -86
- RMP percentage change compared to vehicle control [2]: -2%
- Refractoriness Escape [2]: 0
- Refractoriness Escape percentage change compared to vehicle control [2]: 0%
- STV [2]: 0.45
- STV percentage change compared to vehicle control [2]: 40%
- Triangulation [2]: 134
- Triangulation percentage change compared to vehicle control [2]: 0%
- AMAX [3]: 109
- AMAX percentage change compared to vehicle control [3]: -2%
- APD30 [3]: 148
- APD30 percentage change compared to vehicle control [3]: 4%
- APD50 [3]: 200
- APD50 percentage change compared to vehicle control [3]: 3%
- APD90 [3]: 284
- APD90 percentage change compared to vehicle control [3]: 2%
- Alternans [3]: 0.52
- Alternans percentage change compared to vehicle control [3]: 12%
- Beat Escape [3]: 0
- Beat Escape percentage change compared to vehicle control [3]: 0%
- EADs [3]: 0
- EADs percentage change compared to vehicle control [3]: 0%
- ERP [3]: 0.45
- ERP percentage change compared to vehicle control [3]: 0%
- Max Dispersion [3]: 2.43
- Max Dispersion percentage change compared to vehicle control [3]: -13%
- RMP [3]: -85
- RMP percentage change compared to vehicle control [3]: -3%
- Refractoriness Escape [3]: 0
- Refractoriness Escape percentage change compared to vehicle control [3]: 0%
- STV [3]: 0.39
- STV percentage change compared to vehicle control [3]: 30%
- Triangulation [3]: 135
- Triangulation percentage change compared to vehicle control [3]: 0%
- AMAX [4]: 110
- AMAX percentage change compared to vehicle control [4]: 0%
- APD30 [4]: 140
- APD30 percentage change compared to vehicle control [4]: -2%
- APD50 [4]: 192
- APD50 percentage change compared to vehicle control [4]: -2%
- APD90 [4]: 277
- APD90 percentage change compared to vehicle control [4]: 0%
- Alternans [4]: 0.60
- Alternans percentage change compared to vehicle control [4]: 31%
- Beat Escape [4]: 0
- Beat Escape percentage change compared to vehicle control [4]: 0%
- EADs [4]: 0
- EADs percentage change compared to vehicle control [4]: 0%
- ERP [4]: 0.46
- ERP percentage change compared to vehicle control [4]: 2%
- Max Dispersion [4]: 3.70
- Max Dispersion percentage change compared to vehicle control [4]: 32%
- RMP [4]: -87
- RMP percentage change compared to vehicle control [4]: -1%
- Refractoriness Escape [4]: 0
- Refractoriness Escape percentage change compared to vehicle control [4]: 0%
- STV [4]: 0.44
- STV percentage change compared to vehicle control [4]: 56%
- Triangulation [4]: 137
- Triangulation percentage change compared to vehicle control [4]: 2%
- AMAX [5]: 109
- AMAX percentage change compared to vehicle control [5]: 2%
- APD30 [5]: 107
- APD30 percentage change compared to vehicle control [5]: 8%
- APD50 [5]: 151
- APD50 percentage change compared to vehicle control [5]: 6%
- APD90 [5]: 228
- APD90 percentage change compared to vehicle control [5]: 2%
- Alternans [5]: 1.31
- Alternans percentage change compared to vehicle control [5]: 24%
- Beat Escape [5]: 0
- Beat Escape percentage change compared to vehicle control [5]: 0%
- EADs [5]: 0
- EADs percentage change compared to vehicle control [5]: 0%
- ERP [5]: 0.48
- ERP percentage change compared to vehicle control [5]: -3%
- Max Dispersion [5]: 5.60
- Max Dispersion percentage change compared to vehicle control [5]: 14%
- RMP [5]: -87
- RMP percentage change compared to vehicle control [5]: 1%
- Refractoriness Escape [5]: 0
- Refractoriness Escape percentage change compared to vehicle control [5]: 0%
- STV [5]: 0.91
- Triangulation [5]: 120
- Triangulation percentage change compared to vehicle control [5]: -2%
- AMAX [6]: 108
- AMAX percentage change compared to vehicle control [6]: 2%
- APD30 [6]: 110
- APD30 percentage change compared to vehicle control [6]: 11%
- APD50 [6]: 153
- APD50 percentage change compared to vehicle control [6]: 7%
- APD90 [6]: 231
- APD90 percentage change compared to vehicle control [6]: 4%
- Alternans [6]: 0.97
- Alternans percentage change compared to vehicle control [6]: -8%
- Beat Escape [6]: 0
- Beat Escape percentage change compared to vehicle control [6]: 0%
- EADs [6]: 0
- EADs percentage change compared to vehicle control [6]: 0%
- ERP [6]: 0.47
- ERP percentage change compared to vehicle control [6]: -6%
- Max Dispersion [6]: 4.40
- Max Dispersion percentage change compared to vehicle control [6]: -11%
- RMP [6]: -86
- RMP percentage change compared to vehicle control [6]: -1%
- Refractoriness Escape [6]: 0
- Refractoriness Escape percentage change compared to vehicle control [6]: 0%
- STV [6]: 0.66
- Triangulation [6]: 121
- Triangulation percentage change compared to vehicle control [6]: -2%
- AMAX [7]: 109
- AMAX percentage change compared to vehicle control [7]: 2%
- APD30 [7]: 108
- APD30 percentage change compared to vehicle control [7]: 10%
- APD50 [7]: 154
- APD50 percentage change compared to vehicle control [7]: 7%
- APD90 [7]: 234
- APD90 percentage change compared to vehicle control [7]: 4%
- Alternans [7]: 1.28
- Alternans percentage change compared to vehicle control [7]: 21%
- Beat Escape [7]: 0
- Beat Escape percentage change compared to vehicle control [7]: 0%
- EADs [7]: 0
- EADs percentage change compared to vehicle control [7]: 0%
- ERP [7]: 0.48
- ERP percentage change compared to vehicle control [7]: -2%
- Max Dispersion [7]: 5.53
- Max Dispersion percentage change compared to vehicle control [7]: 12%
- RMP [7]: -85
- RMP percentage change compared to vehicle control [7]: -2%
- Refractoriness Escape [7]: 0
- Refractoriness Escape percentage change compared to vehicle control [7]: 0%
- STV [7]: 0.89
- Triangulation [7]: 126
- Triangulation percentage change compared to vehicle control [7]: 0%
- AMAX [8]: 108
- AMAX percentage change compared to vehicle control [8]: 2%
- APD30 [8]: 105
- APD30 percentage change compared to vehicle control [8]: 5%
- APD50 [8]: 150
- APD50 percentage change compared to vehicle control [8]: 4%
- APD90 [8]: 233
- APD90 percentage change compared to vehicle control [8]: 3%
- Alternans [8]: 0.96
- Alternans percentage change compared to vehicle control [8]: -10%
- Beat Escape [8]: 0
- Beat Escape percentage change compared to vehicle control [8]: 0%
- EADs [8]: 0
- EADs percentage change compared to vehicle control [8]: 0%
- ERP [8]: 0.48
- ERP percentage change compared to vehicle control [8]: -3%
- Max Dispersion [8]: 3.10
- Max Dispersion percentage change compared to vehicle control [8]: -37%
- RMP [8]: -85
- RMP percentage change compared to vehicle control [8]: -2%
- Refractoriness Escape [8]: 0
- Refractoriness Escape percentage change compared to vehicle control [8]: 0%
- STV [8]: 0.71
- Triangulation [8]: 128
- Triangulation percentage change compared to vehicle control [8]: 3%

Source: PMC5760531, “Action Potential Recording and Pro-arrhythmia Risk Analysis in Human Ventricular Trabeculae” (Frontiers in Physiology, 2018)
